# In publication PMC3034713, “Targeting Vascular NADPH Oxidase 1 Blocks Tumor Angiogenesis through a PPARα Mediated Mechanism” (PLoS ONE, 2011):
# Legend:
# [1] = target: iNoS (Homo sapiens, UniProt P35228); assay: Pharmacological profiling (Cerep), Table S1
# [2] = tested on: MLEC; assay: Endothelial cell sprouting assay (tube-like structure formation, 3D culture); format: cell-based, mouse; settings: MLEC, 10 µM
# Experimental: Sprouting assay was performed as described previously. Briefly, endothelial cells were plated in 96 well plates at 8,000 cells per well in a 3D fibrin gel. Above the gel, 10% FCS containing DMEM was complemented with 200 KIU/ml of Aprotinin (Sigma). Length of branches was evaluated using the Metamorph program. Results are expressed in mm of skeleton length/number of cells.
# [3] = target: T1, xanthine oxidase (Homo sapiens, UniProt P47989); assay: Xanthine oxidase inhibition, concentration-response; format: biochemical
# T1 sequence (P47989 whole entry, species assumed): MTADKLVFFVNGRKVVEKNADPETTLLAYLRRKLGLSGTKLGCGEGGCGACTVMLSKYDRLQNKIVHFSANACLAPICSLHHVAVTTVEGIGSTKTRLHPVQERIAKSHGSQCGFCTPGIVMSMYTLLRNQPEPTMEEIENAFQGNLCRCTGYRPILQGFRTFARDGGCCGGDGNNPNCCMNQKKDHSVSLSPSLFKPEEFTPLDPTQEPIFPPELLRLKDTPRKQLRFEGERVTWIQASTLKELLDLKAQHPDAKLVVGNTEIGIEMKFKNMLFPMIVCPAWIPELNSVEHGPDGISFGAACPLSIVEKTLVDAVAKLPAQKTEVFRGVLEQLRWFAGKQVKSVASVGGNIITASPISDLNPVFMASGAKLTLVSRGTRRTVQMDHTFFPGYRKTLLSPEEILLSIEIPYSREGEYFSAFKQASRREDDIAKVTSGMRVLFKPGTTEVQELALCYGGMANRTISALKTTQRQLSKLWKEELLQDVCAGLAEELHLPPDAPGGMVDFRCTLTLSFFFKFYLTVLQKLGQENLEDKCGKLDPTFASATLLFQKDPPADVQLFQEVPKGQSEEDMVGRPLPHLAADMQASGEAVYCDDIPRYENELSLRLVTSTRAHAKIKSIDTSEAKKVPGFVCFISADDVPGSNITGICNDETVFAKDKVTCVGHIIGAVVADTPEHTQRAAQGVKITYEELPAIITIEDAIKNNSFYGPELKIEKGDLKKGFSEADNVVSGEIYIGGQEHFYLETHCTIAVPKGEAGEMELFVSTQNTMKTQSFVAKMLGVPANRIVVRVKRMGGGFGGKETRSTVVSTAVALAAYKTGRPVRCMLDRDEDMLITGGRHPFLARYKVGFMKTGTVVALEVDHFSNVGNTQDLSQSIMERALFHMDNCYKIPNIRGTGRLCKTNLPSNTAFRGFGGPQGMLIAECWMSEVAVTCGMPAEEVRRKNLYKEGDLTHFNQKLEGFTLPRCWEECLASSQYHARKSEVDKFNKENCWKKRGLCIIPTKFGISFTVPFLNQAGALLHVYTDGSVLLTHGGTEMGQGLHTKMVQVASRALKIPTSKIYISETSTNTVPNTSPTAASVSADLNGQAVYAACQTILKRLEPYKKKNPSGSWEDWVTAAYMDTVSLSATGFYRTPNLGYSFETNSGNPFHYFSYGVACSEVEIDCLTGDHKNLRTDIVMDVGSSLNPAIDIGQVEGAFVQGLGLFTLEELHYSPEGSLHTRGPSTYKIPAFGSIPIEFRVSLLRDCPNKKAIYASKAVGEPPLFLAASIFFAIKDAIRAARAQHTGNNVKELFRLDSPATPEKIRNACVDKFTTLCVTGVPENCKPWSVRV
# [4] = tested on: MLEC; assay: Wound healing assay (endothelial cell migration); format: cell-based, mouse
# Experimental: Wound healing assay was performed as described previously. Briefly, endothelial cells were plated in Matrigel (Becton Dickinson) precoated 96 wells plates. One day after plating the cell monolayer was scratched to make a regular wound. Cells were allowed to migrate overnight. Migration area was then measured and calculated using the Metamorph program (MDS Analytical Technologies).
# [5] = tested on: PKC a, bI, bII, d; assay: Pharmacological profiling (Cerep), Table S1
# [6] = target: MPO (Homo sapiens, UniProt P05164); assay: Pharmacological profiling (Cerep), Table S1
# Sequence of MPO (P05164 49-745, species assumed): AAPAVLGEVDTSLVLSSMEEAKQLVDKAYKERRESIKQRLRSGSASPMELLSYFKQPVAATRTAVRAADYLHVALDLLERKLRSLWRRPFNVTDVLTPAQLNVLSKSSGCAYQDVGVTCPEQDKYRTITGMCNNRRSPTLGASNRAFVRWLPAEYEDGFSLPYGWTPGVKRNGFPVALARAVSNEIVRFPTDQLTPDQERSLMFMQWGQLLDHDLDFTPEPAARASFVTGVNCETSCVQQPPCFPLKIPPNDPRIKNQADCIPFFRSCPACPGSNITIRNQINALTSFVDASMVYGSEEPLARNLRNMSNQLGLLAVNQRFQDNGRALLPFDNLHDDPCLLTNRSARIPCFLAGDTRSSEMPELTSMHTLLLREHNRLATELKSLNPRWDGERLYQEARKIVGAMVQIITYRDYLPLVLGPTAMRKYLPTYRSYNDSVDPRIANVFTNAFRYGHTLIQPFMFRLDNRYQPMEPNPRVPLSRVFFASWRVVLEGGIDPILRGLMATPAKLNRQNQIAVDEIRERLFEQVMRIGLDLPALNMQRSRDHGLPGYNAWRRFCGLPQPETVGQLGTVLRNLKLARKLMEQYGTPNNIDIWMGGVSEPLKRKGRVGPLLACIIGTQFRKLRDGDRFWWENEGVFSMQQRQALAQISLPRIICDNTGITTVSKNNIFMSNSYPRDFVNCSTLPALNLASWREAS
# [7] = target: T2, NOX2 (Homo sapiens, UniProt P04839); assay: NOX inhibition in cell free assay, membranes from NOX2 expressing PMN cells (Amplex Red ROS); format: biochemical
# T2 construct: Membranes from NOX2 expressing PMN cells; endogenous in cells; host or cells: PMN cells
# T2 sequence (P04839 2-570 limits assumed): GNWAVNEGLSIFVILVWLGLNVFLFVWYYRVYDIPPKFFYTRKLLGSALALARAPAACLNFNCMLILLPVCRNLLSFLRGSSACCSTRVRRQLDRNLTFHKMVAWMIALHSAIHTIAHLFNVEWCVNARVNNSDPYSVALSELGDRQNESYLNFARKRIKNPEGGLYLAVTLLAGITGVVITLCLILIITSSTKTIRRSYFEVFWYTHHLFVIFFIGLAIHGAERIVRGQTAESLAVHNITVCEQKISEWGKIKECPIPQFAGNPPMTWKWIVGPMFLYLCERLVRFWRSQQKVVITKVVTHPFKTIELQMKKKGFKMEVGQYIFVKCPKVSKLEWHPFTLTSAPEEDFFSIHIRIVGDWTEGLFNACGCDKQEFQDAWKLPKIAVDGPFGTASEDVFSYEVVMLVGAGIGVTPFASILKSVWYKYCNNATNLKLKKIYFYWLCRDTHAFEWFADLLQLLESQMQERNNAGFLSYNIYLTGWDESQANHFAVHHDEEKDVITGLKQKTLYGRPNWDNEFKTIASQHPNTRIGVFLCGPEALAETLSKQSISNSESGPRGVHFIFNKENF
# T2 sequence (P13498 2-195 partner limits assumed): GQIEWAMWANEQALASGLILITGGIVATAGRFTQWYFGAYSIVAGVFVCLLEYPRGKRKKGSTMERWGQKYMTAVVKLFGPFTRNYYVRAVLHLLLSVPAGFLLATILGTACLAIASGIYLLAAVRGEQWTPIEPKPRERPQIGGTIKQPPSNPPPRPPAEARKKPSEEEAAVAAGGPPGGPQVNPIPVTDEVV
# Experimental: (§1) Membranes from NOX2 expressing PMN cells or from cells overexpressing NOX1 or NOX4 were prepared as previously described. After resuspension in sonication buffer (11% sucrose, 120 mM NaCl, 1 mM EGTA in PBS, pH 7.4 for NOX4-expressing cells) or in relax buffer (10 mM Pipes, 3 mM NaCl, 3.5 mM MgCl2, 0.1 M KCl, pH 7.4), cells were broken by sonication and centrifuged (200 g, 10 min). The supernatant was loaded onto a 17/40% (w/v) discontinuous sucrose gradient and centrifuged (150,000 g for 30 min). Membrane fractions were collected and stored at −80°C. ROS production measurements of membranes expressing different NOX subunits was determined as previously described using the Amplex Red method (Invitrogen).
# [8] = target: eNos (Homo sapiens, UniProt P29474); assay: Pharmacological profiling (Cerep), Table S1
# [9] = target: T1, xanthine oxidase; assay: Pharmacological profiling (Cerep), Table S1
# [10] = tested on: Heart, Kidney, Liver and Lung of mice; settings: mouse, in vivo
# Experimental: Supplementary file pone.0014665.s009.tif: Figure S8 Non toxic effect GKT 136901 on mice organs. Heart (a), Kidney (b), Liver (c) and Lung (d) of mice treated orally with vehicle or with vehicle plus GKT136901 inhibitor at 40 mg/kg per day during 8 days, stained by Hematoxilin/Eosin. Scale bars represent 100 μm on the full picture and 20 μm on the zoom. Images were acquired with a 20x/0.8 numeric aperture and analyzed using Mirax (Carl Zeiss). (8.38 MB TIF) Click here for additional data file.
# [11] = tested on: murine and human endothelial cells (MLEC, HUVEC, mouse endothelioma); assay: ROS measurement with DHE in endothelial cells stimulated with VEGF or bFGF; format: cell-based; settings: 10 µM
# Experimental: Endothelial cells were seeded on glass slides and stained with dihydroethidium (DHE). Images were captured with an inverted microscope and analyzed with Metafluor imaging software (MDS Analytical Technologies). Quantification was performed by measuring the fluorescence intensity of over minimum 50 endothelial cells per slide.
# [12] = tested on: PI3K a, b, d, g; assay: Pharmacological profiling (Cerep), Table S1
# [13] = tested on: LLC1 and B16F0 cells; assay: Tumor cell proliferation (EdU incorporation, propidium iodide); format: cell-based; settings: 10 μM, 24h
# Experimental: (§2) Supplementary file pone.0014665.s008.tif: Figure S7 Effect of GKT 136901 on tumor cells. a. LLC1 and B16F0 cell proliferation was measured by EdU incorporation and propidium iodide staining of DNA content, 24h after incubation with 10 μM of GKT136901. b. LLC1 apoptosis was measured by AnnexinV/PI staining after 24h of incubation with 10 μM of GKT136901. c. ROS levels produced by LLC1 are inhibited by GKT136901. ROS production was quantified by DHE substrate 1h after incubation with 10 μM of the inhibitor. *** p<0.001 (student t-test). (6.11 MB TIF) Click here for additional data file.
# [14] = tested on: LLC1; assay: ROS production by tumor cells (DHE substrate); format: cell-based; settings: 10 μM, 1h
# Experimental: as §2
# [15] = target: T3, NOX4 (Homo sapiens, UniProt Q9NPH5); assay: NOX inhibition in cell free assay, membranes from cells overexpressing NOX4 (Amplex Red ROS); format: biochemical; settings: Figure S2
# T3 construct: expressed in transfected cells
# T3 sequence (Q9NPH5 whole entry, species assumed, one chain of several): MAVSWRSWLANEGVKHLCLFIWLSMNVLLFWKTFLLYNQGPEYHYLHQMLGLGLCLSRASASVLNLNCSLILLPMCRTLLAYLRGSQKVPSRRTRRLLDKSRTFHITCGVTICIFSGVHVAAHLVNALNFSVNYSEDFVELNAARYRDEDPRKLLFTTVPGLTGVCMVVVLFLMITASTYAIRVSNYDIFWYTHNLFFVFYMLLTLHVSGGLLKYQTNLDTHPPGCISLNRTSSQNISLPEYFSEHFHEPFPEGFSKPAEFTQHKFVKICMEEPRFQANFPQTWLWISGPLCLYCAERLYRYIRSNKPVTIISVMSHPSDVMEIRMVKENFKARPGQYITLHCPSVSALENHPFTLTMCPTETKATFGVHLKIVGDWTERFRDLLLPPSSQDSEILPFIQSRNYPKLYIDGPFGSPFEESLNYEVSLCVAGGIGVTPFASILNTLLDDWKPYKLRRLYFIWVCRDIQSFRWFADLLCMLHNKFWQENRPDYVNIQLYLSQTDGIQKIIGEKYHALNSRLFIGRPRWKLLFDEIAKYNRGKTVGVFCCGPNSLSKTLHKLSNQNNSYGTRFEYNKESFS
# Experimental: as §1
# [16] = tested on: LLC1; assay: Tumor cell apoptosis (AnnexinV/PI staining); format: cell-based; settings: 10 μM, 24h
# Experimental: as §2
smiles,measurement,setting,value
Cc1c2c(=O)n(-c3ccccc3Cl)[nH]c2cc(=O)n1Cc1ccccn1 [GKT136901],% Inhibition at 10 µM,[1],0%
same,tube formation,[2],inhibition
same,Ki,[3],> 100 µM
same,endothelial cell migration,"[4]; MLEC, 10 µM",inhibition
same,endothelial cell migration or invasion in PPARα-deficient cells,"[4]; PPARα-deficient endothelial cells, data not shown",did not affect
same,% Inhibition at 10 µM,[5],0%
same,% Inhibition at 10 µM,[6],0%
same,potency on NOX2 relative to NOX1 and NOX4,[7],ten-fold lower
same,extent of inhibition of oxidase activity of NOX2,[7]; Figure S2,only a partial effect
same,Ki,"[7]; cell-free, membranes from NOX2 expressing PMN cells",1.53 ± 0.09 µM
same,% Inhibition at 10 µM,[8],6%
same,% Inhibition at 10 µM,[9],5%
same,toxic effect on mice (organ histology),[10],no toxic effect
same,ROS induction after VEGF or bFGF stimulation,[11],did not induce ROS
same,% Inhibition at 10 µM,[12],0%
same,tumor cell proliferation in vitro,[13],did not interfere
same,ROS levels produced by LLC1,[14],inhibited
same,extent of inhibition of oxidase activity of NOX4,[15],completely inhibits
same,tumor cell apoptosis in vitro,[16],did not interfere
